≈ marks a conversion by molar mass, not a printed value.
Tests used:
Escherichia coli [1] = experiment: Antibacterial activity against Escherichia coli ATCC 35218 by twofold serial dilution technique; assay type: functional
Candida albicans [2] = experiment: Antifungal activity against Candida albicans PYCC 3436 at 10 ug/mL after 72 hrs by agar cup plate method; assay type: functional; settings: PYCC 3436, 72 h, read-out: IZ
Candida albicans [3] = experiment: Antifungal activity against Candida albicans ATCC 90028 by twofold serial dilution technique; assay type: functional
Bacillus subtilis [4] = experiment: Antibacterial activity against Bacillus subtilis ATCC 6631 by twofold serial dilution technique; assay type: functional
Candida albicans [5] = experiment: Antifungal activity against Candida albicans PYCC 3436 by twofold serial dilution technique; assay type: functional
[6] = test system: Lysinibacillus sphaericus; experiment: Antibacterial activity against Bacillus sphaericus ATCC 7031 at 10 ug/mL after 24 hrs by disc diffusion method; assay type: functional; settings: ATCC 7031, 24 h, read-out: IZ
Aspergillus niger [7] = experiment: Antifungal activity against Aspergillus niger ATCC 16404 by twofold serial dilution technique; assay type: functional
Aspergillus fumigatus [8] = experiment: Antifungal activity against Aspergillus fumigatus ATCC 28212 by twofold serial dilution technique; assay type: functional
Staphylococcus aureus [9] = experiment: Antibacterial activity against Staphylococcus aureus ATCC 6538 by twofold serial dilution technique; assay type: functional
Candida albicans [10] = experiment: Antifungal activity against Candida albicans ATCC 90028 at 10 ug/mL after 72 hrs by agar cup plate method; assay type: functional; settings: ATCC 90028, 72 h, read-out: IZ
Pseudomonas aeruginosa [11] = experiment: Antibacterial activity against Pseudomonas aeruginosa ATCC 9027 by twofold serial dilution technique; assay type: functional
Salmonella typhi [12] = experiment: Antibacterial activity against Salmonella typhi ATCC 6539 by twofold serial dilution technique; assay type: functional, Salmonella enterica subsp. enterica serovar Typhi; settings: Salmonella enterica
Salmonella typhi [13] = experiment: Antibacterial activity against Salmonella typhi ATCC 6539 at 10 ug/mL after 24 hrs by disc diffusion method; assay type: functional, Salmonella enterica subsp. enterica serovar Typhi; settings: Salmonella enterica, ATCC 6539, 24 h; read-out: IZ
Staphylococcus aureus [14] = experiment: Antibacterial activity against Staphylococcus aureus ATCC 6538 at 10 ug/mL after 24 hrs by disc diffusion method; assay type: functional; settings: ATCC 6538, 24 h, read-out: IZ
[15] = test system: Lysinibacillus sphaericus; experiment: Antibacterial activity against Bacillus sphaericus ATCC 7031 by twofold serial dilution technique; assay type: functional
Escherichia coli [16] = experiment: Antibacterial activity against Escherichia coli ATCC 35218 at 10 ug/mL after 24 hrs by disc diffusion method; assay type: functional; settings: ATCC 35218, 24 h, read-out: IZ
Aspergillus niger [17] = experiment: Antifungal activity against Aspergillus niger ATCC 16404 at 10 ug/mL after 72 hrs by agar cup plate method; assay type: functional; settings: ATCC 16404, 72 h, read-out: IZ
Aspergillus fumigatus [18] = experiment: Antifungal activity against Aspergillus fumigatus ATCC 28212 at 10 ug/mL after 72 hrs by agar cup plate method; assay type: functional; settings: ATCC 28212, 72 h, read-out: IZ
Bacillus subtilis [19] = experiment: Antibacterial activity against Bacillus subtilis ATCC 6631 at 10 ug/mL after 24 hrs by disc diffusion method; assay type: functional; settings: ATCC 6631, 24 h, read-out: IZ
Pseudomonas aeruginosa [20] = experiment: Antibacterial activity against Pseudomonas aeruginosa ATCC 9027 at 10 ug/mL after 24 hrs by disc diffusion method; assay type: functional; settings: ATCC 9027, 24 h, read-out: IZ

Compound | MIC99 (Escherichia coli [1]) [µg/mL] | zone of inhibition at 10 µg/mL (Candida albicans [2]) [mm] | MIC99 (Candida albicans [3]) [µg/mL] | MIC99 (Bacillus subtilis [4]) [µg/mL] | MIC99 (Candida albicans [5]) [µg/mL] | zone of inhibition at 10 µg/mL [6] [mm] | MIC99 (Aspergillus niger [7]) [µg/mL] | MIC99 (Aspergillus fumigatus [8]) [µg/mL] | MIC99 (Staphylococcus aureus [9]) [µg/mL] | zone of inhibition at 10 µg/mL (Candida albicans [10]) [mm] | MIC99 (Pseudomonas aeruginosa [11]) [µg/mL] | MIC99 (Salmonella typhi [12]) [µg/mL] | zone of inhibition at 10 µg/mL (Salmonella typhi [13]) [mm] | zone of inhibition at 10 µg/mL (Staphylococcus aureus [14]) [mm] | MIC99 [15] [µg/mL] | zone of inhibition at 10 µg/mL (Escherichia coli [16]) [mm] | zone of inhibition at 10 µg/mL (Aspergillus niger [17]) [mm] | zone of inhibition at 10 µg/mL (Aspergillus fumigatus [18]) [mm] | zone of inhibition at 10 µg/mL (Bacillus subtilis [19]) [mm] | zone of inhibition at 10 µg/mL (Pseudomonas aeruginosa [20]) [mm]
c1ccc(CN2C(c3ccccc3)C3=C(NOC3c3ccccc3)C3CCCCC32)cc1 (stereo not given) | 100 (≈ 237 µM) | 10 | > 100 | 100 (≈ 237 µM) | 50 (≈ 118 µM) | 11 | > 100 | 100 (≈ 237 µM) | 100 (≈ 237 µM) | 7 | 100 (≈ 237 µM) | > 100 | 3 | 10 | 100 (≈ 237 µM) | 4 | 4 | 2 | 4 | 3
Clc1ccccc1C1ONC2=C1C(c1ccccc1)N(Cc1ccccc1)C1CCCCC21 (stereo not given) | 25 (≈ 54.7 µM) | 16 | 25 (≈ 54.7 µM) | 50 (≈ 109 µM) | 25 (≈ 54.7 µM) | 13 | 100 (≈ 219 µM) | 25 (≈ 54.7 µM) | 50 (≈ 109 µM) | 22 | 25 (≈ 54.7 µM) | > 100 | 9 | 12 | 50 (≈ 109 µM) | 7 | 14 | 5 | 5 | 6
O=[N+]([O-])c1cccc(C2ONC3=C2C(c2ccccc2)N(Cc2ccccc2)C2CCCCC32)c1 (stereo not given) | 50 (≈ 107 µM) | 16 | 25 (≈ 53.5 µM) | 50 (≈ 107 µM) | 25 (≈ 53.5 µM) | 9 | 100 (≈ 214 µM) | 12.5 (≈ 26.7 µM) | 100 (≈ 214 µM) | 24 | 25 (≈ 53.5 µM) | > 100 | 8 | 8 | 100 (≈ 214 µM) | 5 | 21 | 5 | 6 | 5
COc1ccc(C2ONC3=C2C(c2ccccc2)N(Cc2ccccc2)C2CCCCC32)cc1 (stereo not given) | 25 (≈ 55.2 µM) | 12 | 50 (≈ 110 µM) | 100 (≈ 221 µM) | 50 (≈ 110 µM) | 7 | > 100 | 100 (≈ 221 µM) | 50 (≈ 110 µM) | 14 | 100 (≈ 221 µM) | 100 (≈ 221 µM) | 11 | 14 | 100 (≈ 221 µM) | 6 | 7 | 3 | 5 | 4
Clc1ccc(C2ONC3=C2C(c2ccccc2)N(Cc2ccccc2)C2CCCCC32)cc1 (stereo not given) | 50 (≈ 109 µM) | 18 | 25 (≈ 54.7 µM) | 50 (≈ 109 µM) | 12.5 (≈ 27.4 µM) | 16 | 100 (≈ 219 µM) | 50 (≈ 109 µM) | 50 (≈ 109 µM) | 21 | 25 (≈ 54.7 µM) | > 100 | 9 | 14 | 25 (≈ 54.7 µM) | 4 | 16 | 4 | 6 | 5
c1ccc(CN2C(c3ccccc3)C3=C(NOC3c3ccco3)C3CCCCC32)cc1 (stereo not given) | 100 (≈ 242 µM) | 4 | 100 (≈ 242 µM) | 50 (≈ 121 µM) | 100 (≈ 242 µM) | 12 | > 100 | 50 (≈ 121 µM) | 100 (≈ 242 µM) | 12 | 50 (≈ 121 µM) | > 100 | 2 | 5 | 50 (≈ 121 µM) | 3 | 4 | 4 | 5 | 4
c1ccc(CN2C(c3ccccc3)C3=C(NOC3c3ccc4c(c3)OCO4)C3CCCCC32)cc1 (stereo not given) | 50 (≈ 107 µM) | 6 | 50 (≈ 107 µM) | 100 (≈ 214 µM) | 100 (≈ 214 µM) | 11 | 100 (≈ 214 µM) | 50 (≈ 107 µM) | 100 (≈ 214 µM) | 16 | 25 (≈ 53.6 µM) | > 100 | 7 | 8 | 50 (≈ 107 µM) | 4 | 11 | 4 | 5 | 5
O=C(O)c1cn(C2CC2)c2cc(N3CCNCC3)c(F)cc2c1=O [CIPROFLOXACIN] | 18 (≈ 54.3 µM) | – | – | 25 (≈ 75.4 µM) | – | 24 | – | – | 25 (≈ 75.4 µM) | – | 12.5 (≈ 37.7 µM) | 50 (≈ 151 µM) | 39 | 17 | 20 (≈ 60.4 µM) | 9 | – | – | 9 | 8
CC(=O)N1CCN(c2ccc(OCC3COC(Cn4ccnc4)(c4ccc(Cl)cc4Cl)O3)cc2)CC1 (stereo not given) [KETOCONAZOLE] | – | 22 | 25 (≈ 47 µM) | – | 7.8 (≈ 14.7 µM) | – | 50 (≈ 94.1 µM) | 7 (≈ 13.2 µM) | – | 22 | – | – | – | – | – | – | 25 | 10 | – | –

Reference: ChEMBL document CHEMBL1926636, “Isoxazoles incorporated N-substituted decahydroquinolines: a precursor to the next generation antimicrobial drug” (2012)
